Structures can show the parent of a compound that is named as a salt.

This test concerns Digitaria sanguinalis. The test is described as follows: Test Example 1 (Foliage Treatment Test), herbicidal effect by visual observation. The settings on record: foliar application at six-leaf stage, 27 days after treatment. Type of test: in vivo. The text has this: Upland soil was placed in 1/10,000-are (are (a) = 100 m²) pots and sown with Digitaria sanguinalis. When the plants reached the six-leaf stage, a predetermined amount of each herbicidal composition which had been diluted with 10 ℓ, per are, of water and further admixed with 0.2 % (v/v) of a spreader (Shin Rino®: manufactured by Nihon Nohyaku Co., Ltd.) was foliarly applied on the plants using a small spray gun. 27 days after the foliage treatment application, the herbicidal effect of the herbicidal composition was examined through visual observation according to the following evaluation criteria.

On to `O=C(O)CNCP(=O)(O)O` [Isopropylamine salt of Compound B, isopropylamine salt of N-(phosphonomethyl)glycine, reference compound], for which the Rating is 4 (40 to 49) (2.5 g/a active ingredient) and 6 (60 to 69) (5 g/a active ingredient).
With `COc1cc(OC)nc(NC(=O)NS(=O)(=O)c2ncccc2C(F)(F)F)n1` [Compound A, 1-(4,6-dimethoxy-pyrimidin-2-yl)-3-(3-trifluoromethyl-2-pyridylsulfonyl)urea], the Rating reads like this: (0.25 g/a active ingredient) 2 (20 to 29); (0.5 g/a active ingredient) 3 (30 to 39); (1 g/a active ingredient) 3 (30 to 39).

Source of the values: patent publication EP0475392B1, “Herbicidal composition” (ISHIHARA SANGYO KAISHA, Ltd., priority 1990, dated 1992).
